Test results as given in patent US8278345B2, “Inhibitors of glutaminyl cyclase” (Probiodrug AG, priority 2006, dated 2012).
Read-outs that look alike come from different tables or passages of the source.

Target: hQC (Homo sapiens, UniProt Q16769)
Test: Inhibitor assay for glutaminyl cyclase activity (fluorometric, H-Gln-βNA / H-Gln-AMC)
Type: biochemical
How it was run: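 Coupled fluorometric assay at 30 °C with pyroglutamyl aminopeptidase, in Tris/HCl pH 8.0 with EDTA, substrate H-Gln-βNA (0.2 mM; ex/em 320/410 nm) or H-Gln-AMC (ex/em 380/460 nm), initiated by QC. Screening: 4 mM inhibitor, substrate at 1 KM; Ki from progress curves fitted to competitive inhibition.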

[1] = compound from preparative synthesis, purified, read-out: IC50 hQC

Sequence of hQC (Q16769 29-361): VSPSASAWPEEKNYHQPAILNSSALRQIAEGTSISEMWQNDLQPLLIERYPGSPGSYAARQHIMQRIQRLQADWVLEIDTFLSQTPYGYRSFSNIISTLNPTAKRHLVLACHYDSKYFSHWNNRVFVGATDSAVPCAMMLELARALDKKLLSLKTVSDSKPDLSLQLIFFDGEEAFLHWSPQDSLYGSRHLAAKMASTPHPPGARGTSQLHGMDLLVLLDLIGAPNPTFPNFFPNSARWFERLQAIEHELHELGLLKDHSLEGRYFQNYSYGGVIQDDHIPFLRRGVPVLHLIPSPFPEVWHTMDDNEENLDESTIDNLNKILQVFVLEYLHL

Structure (SMILES) | IC50 (read-out: IC50) | IC50 [1]
CCC1=C(O)C(=O)N(CCCn2ccnc2)C1c1ccccc1F (stereo not shown) [Compound 250, 4-Ethyl-5-(2-fluoro-phenyl)-3-hydroxy-1-(3-imidazol-1-yl-propyl)-1,5-dihydro-pyrrol-2-one] | 1300 nM | 
CCC1=C(O)C(=O)N(CCCn2ccnc2)C1c1ccc(O)cc1 (stereo not shown) [Compound 251, 4-Ethyl-3-hydroxy-5-(4-hydroxy-phenyl)-1-(3-imidazol-1-yl-propyl)-1,5-dihydro-pyrrol-2-one] | 400 nM | 
CCC1=C(O)C(=O)N(CCCn2ccnc2)C1c1cccc(O)c1 (stereo not shown) [Compound 252, 4-Ethyl-3-hydroxy-5-(3-hydroxy-phenyl)-1-(3-imidazol-1-yl-propyl)-1,5-dihydro-pyrrol-2-one] | 400 nM | 
CC(C)C1=C(O)C(=O)N(c2ccc3[nH]cnc3c2)C1c1cc(F)cc(F)c1F (stereo not shown) [Compound 253, 1-(1H-Benzoimidazol-5-yl)-3-hydroxy-4-isopropyl-5-(2,3,5-trifluoro-phenyl)-1,5-dihydro-pyrrol-2-one] | 1300 nM | 
CCCC(=O)C1=C(O)C(=O)N(c2ccc3[nH]cnc3c2)C1c1nccs1 (stereo not shown) [Compound 254, 1-(1H-Benzoimidazol-5-yl)-4-butyryl-3-hydroxy-5-thiazol-2-yl-1,5-dihydro-pyrrol-2-one] | 2200 nM | 
O=C(C1=C(O)C(=O)N(c2ccc3[nH]cnc3c2)C1c1c[nH]cn1)C1CCCCC1 (stereo not shown) [Compound 255, 1-(1H-Benzoimidazol-5-yl)-4-cyclohexanecarbonyl-3-hydroxy-5-(1H-imidazol-4-yl)-1,5-dihydro-pyrrol-2-one] | 2470 nM | 
CCCC(=O)C1=C(O)C(=O)N(c2ccc3[nH]cnc3c2)C1c1ccc(C)o1 (stereo not shown) [Compound 256, 1-(1H-Benzoimidazol-5-yl)-4-butyryl-3-hydroxy-5-(5-methyl-furan-2-yl)-1,5-dihydro-pyrrol-2-one] | 4 nM | 203 nM
O=C(C1=C(O)C(=O)N(c2ccc3[nH]cnc3c2)C1c1ccc(Cl)c(C(F)(F)F)c1)c1cc2ccccc2s1 (stereo not shown) [Compound 257, 4-(Benzo[b]thiophene-2-carbonyl)-1-(1H-benzoimidazol-5-yl)-5-(4-chloro-3-trifluoromethyl-phenyl)-3-hydroxy-1,5-dihydro-pyrrol-2-one] | 3370 nM | 
CCCCCC(=O)C1=C(O)C(=O)N(c2ccc3[nH]cnc3c2)C1c1ccc(C)o1 (stereo not shown) [Compound 258, 1-(1H-Benzoimidazol-5-yl)-4-hexanoyl-3-hydroxy-5-(5-methyl-furan-2-yl)-1,5-dihydro-pyrrol-2-one] | 2560 nM | 
CC1=C(O)C(=O)N(c2ccc3nc[nH]c3c2)C1c1cccc(F)c1F (stereo not shown) [Compound 259, 1-(1H-Benzoimidazol-5-yl)-5-(2,3-difluoro-phenyl)-3-hydroxy-4-methyl-1,5-dihydro-pyrrol-2-one] | 1300 nM | 
Cc1cccc(C2C(C(=O)C3CC3)=C(O)C(=O)N2c2ccc3[nH]cnc3c2)c1 (stereo not shown) [Compound 260, 1-(1H-Benzoimidazol-5-yl)-4-cyclopropanecarbonyl-3-hydroxy-5-m-tolyl-1,5-dihydro-pyrrol-2-one] | 40 nM | 
CC(=O)C1=C(O)C(=O)N(c2ccc3[nH]cnc3c2)C1c1cc(F)cc(F)c1F (stereo not shown) [Compound 261, 4-Acetyl-1-(1H-benzoimidazol-5-yl)-3-hydroxy-5-(2,3,5-trifluoro-phenyl)-1,5-dihydro-pyrrol-2-one] | 310 nM | 
Cc1ccc2occ(C3C(c4ccccc4)=C(O)C(=O)N3c3ccc4[nH]cnc4c3)c(=O)c2c1 (stereo not shown) [Compound 262, 1-(1H-Benzoimidazol-5-yl)-3-hydroxy-5-(6-methyl-4-oxo-4H-chromen-3-yl)-4-phenyl-1,5-dihydro-pyrrol-2-one] | 850 nM | 
O=C(C1=C(O)C(=O)N(c2ccc3[nH]cnc3c2)C1c1ccc(CO)o1)c1ccsc1 (stereo not shown) [Compound 263, 1-(1H-Benzoimidazol-5-yl)-3-hydroxy-5-(5-hydroxymethyl-furan-2-yl)-4-(thiophene-3-carbonyl)-1,5-dihydro-pyrrol-2-one] | 2020 nM | 
O=C1C(O)=C(c2ccccc2)C(c2ccc(Cl)c(Cl)c2)N1c1ccc2[nH]cnc2c1 (stereo not shown) [Compound 264, 1-(1H-Benzoimidazol-5-yl)-5-(3,4-dichloro-phenyl)-3-hydroxy-4-phenyl-1,5-dihydro-pyrrol-2-one] | 1570 nM | 
CC1=C(O)C(=O)N(c2ccc3[nH]cnc3c2)C1c1ccc(O)cc1O (stereo not shown) [Compound 265, 1-(1H-Benzoimidazol-5-yl)-5-(2,4-dihydroxy-phenyl)-3-hydroxy-4-methyl-1,5-dihydro-pyrrol-2-one] | 3370 nM | 
CC(=O)C1=C(O)C(=O)N(c2ccc3[nH]cnc3c2)C1C1CC1 (stereo not shown) [Compound 266, 4-Acetyl-1-(1H-benzoimidazol-5-yl)-5-cyclopropyl-3-hydroxy-1,5-dihydro-pyrrol-2-one] | 2290 nM | 
O=C1C(O)=C(c2ccccc2)C(c2cccc3cccnc23)N1c1ccc2[nH]cnc2c1 (stereo not shown) [Compound 267, 1-(1H-Benzoimidazol-5-yl)-3-hydroxy-4-phenyl-5-quinolin-8-yl-1,5-dihydro-pyrrol-2-one] | 7510 nM | 

Structure (SMILES) | IC50 (read-out: IC50) | IC50 [1]
CCCC(=O)C1=C(O)C(=O)N(c2ccc3[nH]cnc3c2)C1c1c[nH]c2ccccc12 (stereo not shown) [Compound 268, 1-(1H-Benzoimidazol-5-yl)-4-butyryl-3-hydroxy-5-(1H-indol-3-yl)-1,5-dihydro-pyrrol-2-one] | 8590 nM | 
O=C1C(O)=C(c2cccc(O)c2)C(c2ccc3nsnc3c2)N1c1ccc2[nH]cnc2c1 (stereo not shown) [Compound 269, 1-(1H-Benzoimidazol-5-yl)-5-benzo[c][1,2,5]thiadiazol-5-yl-3-hydroxy-4-(3-hydroxy-phenyl)-1,5-dihydro-pyrrol-2-one] | 4 nM | 22.5 nM
CC1=C(O)C(=O)N(c2ccc3[nH]cnc3c2)C1c1ccnc2ccccc12 (stereo not shown) [Compound 270, 1-(1H-Benzoimidazol-5-yl)-3-hydroxy-4-methyl-5-quinolin-4-yl-1,5-dihydro-pyrrol-2-one] | 1480 nM | 
Cc1cc(C2C(c3ccc(O)cc3)=C(O)C(=O)N2c2ccc3[nH]cnc3c2)oc1C (stereo not shown) [Compound 271, 1-(1H-Benzoimidazol-5-yl)-5-(4,5-dimethyl-furan-2-yl)-3-hydroxy-4-(4-hydroxy-phenyl)-1,5-dihydro-pyrrol-2-one] | 1390 nM | 
O=C(C1=C(O)C(=O)N(c2ccc3[nH]cnc3c2)C1c1ccc(CO)o1)c1ccncc1 (stereo not shown) [Compound 272, 1-(1H-Benzoimidazol-5-yl)-3-hydroxy-5-(5-hydroxymethyl-furan-2-yl)-4-(pyridine-4-carbonyl)-1,5-dihydro-pyrrol-2-one] | 3730 nM | 
Cc1ccc(C2C(C(=O)C3CCCCC3)=C(O)C(=O)N2c2ccc3[nH]cnc3c2)o1 (stereo not shown) [Compound 273, 1-(1H-Benzoimidazol-5-yl)-4-cyclohexanecarbonyl-3-hydroxy-5-(5-methyl-furan-2-yl)-1,5-dihydro-pyrrol-2-one] | 580 nM | 
CCCCCC(=O)C1=C(O)C(=O)N(c2ccc3[nH]cnc3c2)C1C1CCOC1 (stereo not shown) [Compound 274, 1-(1H-Benzoimidazol-5-yl)-4-hexanoyl-3-hydroxy-5-(tetrahydro-furan-3-yl)-1,5-dihydro-pyrrol-2-one] | 2470 nM | 
CC(C)C1=C(O)C(=O)N(c2ccc3[nH]cnc3c2)C1c1csc2ccccc12 (stereo not shown) [Compound 275, 5-Benzo[b]thiophen-3-yl-1-(1H-benzoimidazol-5-yl)-3-hydroxy-4-isopropyl-1,5-dihydro-pyrrol-2-one] | 6070 nM | 
CCC1=C(O)C(=O)N(c2ccc3[nH]cnc3c2)C1c1cc(Cl)ccc1O (stereo not shown) [Compound 276, 1-(1H-Benzoimidazol-5-yl)-5-(5-chloro-2-hydroxy-phenyl)-4-ethyl-3-hydroxy-1,5-dihydro-pyrrol-2-one] | 4360 nM | 
CC(C)CC(=O)C1=C(O)C(=O)N(c2ccc3[nH]cnc3c2)C1c1cn(C)c2ccccc12 (stereo not shown) [Compound 278, 1-(1H-Benzoimidazol-5-yl)-3-hydroxy-4-(3-methyl-butyryl)-5-(1-methyl-1H-indol-3-yl)-1,5-dihydro-pyrrol-2-one] | 5350 nM | 
O=C1C(O)=C(c2ccc(O)cc2)C(C2CCOC2)N1c1ccc2[nH]cnc2c1 (stereo not shown) [Compound 279, 1-(1H-Benzoimidazol-5-yl)-3-hydroxy-4-(4-hydroxy-phenyl)-5-(tetrahydro-furan-3-yl)-1,5-dihydro-pyrrol-2-one] | 5800 nM | 
Cc1ccc2occ(C3C(c4ccc(O)cc4)=C(O)C(=O)N3c3ccc4[nH]cnc4c3)c(=O)c2c1 (stereo not shown) [Compound 280, 1-(1H-Benzoimidazol-5-yl)-3-hydroxy-4-(4-hydroxy-phenyl)-5-(6-methyl-4-oxo-4H-chromen-3-yl)-1,5-dihydro-pyrrol-2-one] | 310 nM | 
O=C1C(O)=C(c2c[nH]c3ccccc23)C(c2cccc3cccnc23)N1c1ccc2[nH]cnc2c1 (stereo not shown) [Compound 281, 1-(1H-Benzoimidazol-5-yl)-3-hydroxy-4-(1H-indol-3-yl)-5-quinolin-8-yl-1,5-dihydro-pyrrol-2-one] | 5890 nM | 
CCC1=C(O)C(=O)N(c2ccc3[nH]cnc3c2)C1c1cc(C)ccc1O (stereo not shown) [Compound 282, 1-(1H-Benzoimidazol-5-yl)-4-ethyl-3-hydroxy-5-(2-hydroxy-5-methyl-phenyl)-1,5-dihydro-pyrrol-2-one] | 670 nM | 
CC(=O)C1=C(O)C(=O)N(c2ccc3[nH]cnc3c2)C1c1cccc(C)c1 (stereo not shown) [Compound 283, 4-Acetyl-1-(1H-benzoimidazol-5-yl)-3-hydroxy-5-m-tolyl-1,5-dihydro-pyrrol-2-one] | 400 nM | 
Cc1ccc(O)c(C2C(c3ccc(O)cc3)=C(O)C(=O)N2c2ccc3[nH]cnc3c2)c1 (stereo not shown) [Compound 284, 1-(1H-Benzoimidazol-5-yl)-3-hydroxy-5-(2-hydroxy-5-methyl-phenyl)-4-(4-hydroxy-phenyl)-1,5-dihydro-pyrrol-2-one] | 7150 nM | 
Cc1[nH]c2ccccc2c1C1C(c2c[nH]c3ccccc23)=C(O)C(=O)N1c1ccc2[nH]cnc2c1 (stereo not shown) [Compound 285, 1-(1H-Benzoimidazol-5-yl)-3-hydroxy-4-(1H-indol-3-yl)-5-(2-methyl-1H-indol-3-yl)-1,5-dihydro-pyrrol-2-one] | 5710 nM | 
